Reference: BindingDB's records for doi:10.1021/jm00164a009 (Research Biochemicals, 1990)

Key:
[1] = Ability to inhibit [3H]-SCH- 23390 binding to Dopamine receptor D1 of canine striatal membranes
[2] = as above; remark: listed apart in the source

| Kd [1] [nM] | Ki [2] [nM] | SMILES |
| --- | --- | --- |
| 0.28 |  | CN1CCc2cc(I)c(O)cc2[C@H](c2ccc(N=[N+]=[N-])cc2)C1 |
|  | 28 | CN1CCc2cc(I)c(O)cc2[C@@H](c2ccc(N=[N+]=[N-])cc2)C1 |
